Experiments:
[1] = test system: ACHN; assay: Anticancer activity against human ACHN cells assessed as cell growth inhibition incubated for 48 hrs by SRB assay; assay type: functional
[2] = test system: SN12C; assay: Anticancer activity against human SN12C cells assessed as cell growth inhibition at 10 uM incubated for 48 hrs by SRB assay relative to control; assay type: functional; conditions: read-out: GI
[3] = test system: Malme-3M; assay: Anticancer activity against human Malme-3M cells assessed as cell growth inhibition incubated for 48 hrs by SRB assay; assay type: functional; conditions: for CC50: read-out: LC50 (the source's name)
[4] = test system: NCI-H522; assay: Anticancer activity against human NCI-H522 cells assessed as cell growth inhibition incubated for 48 hrs by SRB assay; assay type: functional; conditions: for CC50: read-out: LC50 (the source's name)
[5] = target: Carbonic anhydrase 9 (Homo sapiens, UniProt Q16790); assay: Inhibition of recombinant human CA 9 preincubated for 15 mins by phenol red dye based stopped flow CO2 hydration assay
[6] = test system: 786-0; assay: Anticancer activity against human 786-0 cells assessed as cell growth inhibition incubated for 48 hrs by SRB assay; assay type: functional
[7] = test system: K562; assay: Anticancer activity against human K562 cells assessed as cell growth inhibition incubated for 48 hrs by SRB assay; assay type: functional; conditions: for CC50: read-out: LC50 (the source's name)
[8] = test system: SF-295; assay: Anticancer activity against human SF-295 cells assessed as cell growth inhibition incubated for 48 hrs by SRB assay; assay type: functional; conditions: for CC50: read-out: LC50 (the source's name)
[9] = test system: CAKI-1; assay: Anticancer activity against human CAKI-1 cells assessed as cell growth inhibition at 10 uM incubated for 48 hrs by SRB assay relative to control; assay type: functional; conditions: read-out: GI
[10] = test system: SF-268; assay: Anticancer activity against human SF-268 cells assessed as cell growth inhibition incubated for 48 hrs by SRB assay; assay type: functional
[11] = test system: SK-MEL-5; assay: Anticancer activity against human SK-MEL-5 cells assessed as cell growth inhibition incubated for 48 hrs by SRB assay; assay type: functional
[12] = test system: NCI/ADR-RES; assay: Anticancer activity against human NCI/ADR-RES cells assessed as cell growth inhibition incubated for 48 hrs by SRB assay; assay type: functional; conditions: for CC50: read-out: LC50 (the source's name)
[13] = test system: IGROV-1; assay: Anticancer activity against human IGROV-1 cells assessed as cell growth inhibition at 10 uM incubated for 48 hrs by SRB assay relative to control; assay type: functional; conditions: read-out: GI
[14] = test system: OVCAR-3; assay: Anticancer activity against human OVCAR-3 cells assessed as cell growth inhibition incubated for 48 hrs by SRB assay; assay type: functional
[15] = test system: TK-10; assay: Anticancer activity against human TK-10 cells assessed as cell growth inhibition at 10 uM incubated for 48 hrs by SRB assay relative to control; assay type: functional; conditions: read-out: GI
[16] = test system: HOP-92; assay: Anticancer activity against human HOP-92 cells assessed as cell growth inhibition at 10 uM incubated for 48 hrs by SRB assay relative to control; assay type: functional; conditions: read-out: GI
[17] = test system: SNB-19; assay: Anticancer activity against human SNB-19 cells assessed as cell growth inhibition at 10 uM incubated for 48 hrs by SRB assay relative to control; assay type: functional; conditions: read-out: GI
[18] = test system: SK-MEL-5; assay: Anticancer activity against human SK-MEL-5 cells assessed as cell growth inhibition at 10 uM incubated for 48 hrs by SRB assay relative to control; assay type: functional; conditions: read-out: GI
[19] = test system: 786-0; assay: Anticancer activity against human 786-0 cells assessed as cell growth inhibition at 10 uM incubated for 48 hrs by SRB assay relative to control; assay type: functional; conditions: read-out: GI
[20] = test system: SF-295; assay: Anticancer activity against human SF-295 cells assessed as cell growth inhibition at 10 uM incubated for 48 hrs by SRB assay relative to control; assay type: functional; conditions: read-out: GI
[21] = test system: A549; assay: Anticancer activity against human A549 cells assessed as cell growth inhibition at 10 uM incubated for 48 hrs by SRB assay relative to control; assay type: functional; conditions: read-out: GI
[22] = test system: SK-OV-3; assay: Anticancer activity against human SK-OV-3 cells assessed as cell growth inhibition incubated for 48 hrs by SRB assay; assay type: functional
[23] = test system: MDA-MB-231; assay: Anticancer activity against human MDA-MB-231 cells assessed as cell growth inhibition incubated for 48 hrs by SRB assay; assay type: functional
[24] = test system: Hs-578T; assay: Anticancer activity against human Hs-578T cells assessed as cell growth inhibition at 10 uM incubated for 48 hrs by SRB assay relative to control; assay type: functional; conditions: read-out: GI
[25] = test system: SR; assay: Anticancer activity against human SR cells assessed as cell growth inhibition incubated for 48 hrs by SRB assay; assay type: functional; conditions: for CC50: read-out: LC50 (the source's name)
[26] = test system: UACC-257; assay: Anticancer activity against human UACC-257 cells assessed as cell growth inhibition at 10 uM incubated for 48 hrs by SRB assay relative to control; assay type: functional; conditions: read-out: GI
[27] = test system: HL-60(TB); assay: Anticancer activity against human HL-60(TB) cells assessed as cell growth inhibition at 10 uM incubated for 48 hrs by SRB assay relative to control; assay type: functional; conditions: read-out: GI
[28] = test system: MCF7; assay: Anticancer activity against human MCF7 cells assessed as cell growth inhibition at 10 uM incubated for 48 hrs by SRB assay relative to control; assay type: functional; conditions: read-out: GI
[29] = test system: KM12; assay: Anticancer activity against human KM12 cells assessed as cell growth inhibition incubated for 48 hrs by SRB assay; assay type: functional; conditions: for CC50: read-out: LC50 (the source's name)
[30] = test system: DU-145; assay: Anticancer activity against human DU-145 cells assessed as cell growth inhibition incubated for 48 hrs by SRB assay; assay type: functional
[31] = test system: MDA-MB-231; assay: Anticancer activity against human MDA-MB-231 cells assessed as cell growth inhibition at 10 uM incubated for 48 hrs by SRB assay relative to control; assay type: functional; conditions: read-out: GI
[32] = test system: MDA-MB-435; assay: Anticancer activity against human MDA-MB-435 cells assessed as cell growth inhibition incubated for 48 hrs by SRB assay; assay type: functional
[33] = test system: HCT-15; assay: Anticancer activity against human HCT-15 cells assessed as cell growth inhibition incubated for 48 hrs by SRB assay; assay type: functional; conditions: for CC50: read-out: LC50 (the source's name)
[34] = test system: OVCAR-4; assay: Anticancer activity against human OVCAR-4 cells assessed as cell growth inhibition at 10 uM incubated for 48 hrs by SRB assay relative to control; assay type: functional; conditions: read-out: GI
[35] = test system: EKVX; assay: Anticancer activity against human EKVX cells assessed as cell growth inhibition incubated for 48 hrs by SRB assay; assay type: functional; conditions: for CC50: read-out: LC50 (the source's name)
[36] = test system: UO-31; assay: Anticancer activity against human UO-31 cells assessed as cell growth inhibition at 10 uM incubated for 48 hrs by SRB assay relative to control; assay type: functional; conditions: read-out: GI
[37] = test system: Malme-3M; assay: Anticancer activity against human Malme-3M cells assessed as cell growth inhibition at 10 uM incubated for 48 hrs by SRB assay relative to control; assay type: functional; conditions: read-out: GI
[38] = test system: OVCAR-4; assay: Anticancer activity against human OVCAR-4 cells assessed as cell growth inhibition incubated for 48 hrs by SRB assay; assay type: functional
[39] = test system: HCT-116; assay: Anticancer activity against human HCT-116 cells assessed as cell growth inhibition at 10 uM incubated for 48 hrs by SRB assay relative to control; assay type: functional; conditions: read-out: GI
[40] = test system: T47D; assay: Anticancer activity against human T47D cells assessed as cell growth inhibition incubated for 48 hrs by SRB assay; assay type: functional
[41] = read-out: LC50 (the source's name)

Structure (SMILES): NS(=O)(=O)c1ccc(Nc2nc(N/N=C/c3ccccn3)nc(Nc3ccccc3)n2)cc1
- GI50 [1]: 1120 nM
- inhibition of growth at 10 µM [2]: 97%
- GI50 [3]: 1000 nM
- CC50 [3]: 6280 nM
- GI50 [4]: 450 nM
- CC50 [4]: > 100000 nM
- Ki [5]: 27.2 nM
- GI50 [6]: 1060 nM
- CC50 [6, 41]: > 100000 nM
- GI50 [7]: 400 nM
- CC50 [7]: > 100000 nM
- GI50 [8]: 1400 nM
- CC50 [8]: > 100000 nM
- inhibition of growth at 10 µM [9]: 125%
- GI50 [10]: 460 nM
- LC50 (concentration killing 50% of cells) [10]: > 100000 nM
- GI50 [11]: 780 nM
- LC50 [11]: 4710 nM
- GI50 [12]: 2750 nM
- CC50 [12]: > 100000 nM
- inhibition of growth at 10 µM [13]: 130%
- GI50 [14]: 460 nM
- LC50 (concentration killing 50% of cells) [14]: > 100000 nM
- inhibition of growth at 10 µM [15]: 97%
- inhibition of growth at 10 µM [16]: 146%
- inhibition of growth at 10 µM [17]: 90%
- inhibition of growth at 10 µM [18]: 184%
- inhibition of growth at 10 µM [19]: 91%
- inhibition of growth at 10 µM [20]: 100%
- inhibition of growth at 10 µM [21]: 64%
- GI50 [22]: 840 nM
- LC50 [22]: > 100000 nM
- GI50 [23]: 500 nM
- LC50 (concentration killing 50% of cells) [23]: > 100000 nM
- inhibition of growth at 10 µM [24]: 118%
- GI50 [25]: 330 nM
- CC50 [25]: > 100000 nM
- inhibition of growth at 10 µM [26]: 118%
- inhibition of growth at 10 µM [27]: 97%
- inhibition of growth at 10 µM [28]: 98%
- GI50 [29]: 2140 nM
- CC50 [29]: > 100000 nM
- GI50 [30]: 850 nM
- LC50 (50% lethal concentration) [30]: > 100000 nM
- inhibition of growth at 10 µM [31]: 129%
- GI50 [32]: 910 nM
- LC50 [32]: 5930 nM
- GI50 [33]: 1450 nM
- CC50 [33]: > 100000 nM
- inhibition of growth at 10 µM [34]: 120%
- GI50 [35]: 710 nM
- CC50 [35]: > 100000 nM
- inhibition of growth at 10 µM [36]: 82%
- inhibition of growth at 10 µM [37]: 168%
- GI50 [38]: 440 nM
- LC50 (concentration killing 50% of cells) [38]: > 100000 nM
- inhibition of growth at 10 µM [39]: 129%
- GI50 [40]: 470 nM
- LC50 [40]: > 100000 nM

Structure (SMILES): Cc1nn(-c2ccccc2)cc1/C=N/Nc1nc(Nc2ccccc2)nc(Nc2ccc(S(N)(=O)=O)cc2)n1
- GI50 [1]: 1900 nM
- CC50 [1, 41]: 6720 nM
- inhibition of growth at 10 µM [2]: 100%
- GI50 [3]: 1600 nM
- CC50 [3]: 6130 nM
- GI50 [4]: 2660 nM
- CC50 [4]: > 100000 nM
- Ki [5]: 207 nM
- GI50 [6]: 2130 nM
- GI50 [7]: 2630 nM
- CC50 [7]: > 100000 nM
- CC50 [8]: > 100000 nM
- inhibition of growth at 10 µM [9]: 127%
- GI50 [10]: 2930 nM
- LC50 (concentration killing 50% of cells) [10]: > 100000 nM
- GI50 [11]: 1480 nM
- LC50 [11]: 5300 nM
- GI50 [12]: > 100000 nM
- CC50 [12]: > 100000 nM
- inhibition of growth at 10 µM [13]: 86%
- GI50 [14]: 3180 nM
- LC50 (concentration killing 50% of cells) [14]: > 100000 nM
- inhibition of growth at 10 µM [15]: 55%
- inhibition of growth at 10 µM [16]: 113%
- inhibition of growth at 10 µM [17]: 92%
- inhibition of growth at 10 µM [18]: 144%
- inhibition of growth at 10 µM [19]: 147%
- inhibition of growth at 10 µM [20]: 89%
- inhibition of growth at 10 µM [21]: 128%
- GI50 [22]: 2930 nM
- LC50 [22]: > 100000 nM
- GI50 [23]: 3110 nM
- LC50 (concentration killing 50% of cells) [23]: > 100000 nM
- inhibition of growth at 10 µM [24]: 86%
- GI50 [25]: 2450 nM
- CC50 [25]: > 100000 nM
- inhibition of growth at 10 µM [26]: 44%
- inhibition of growth at 10 µM [27]: 96%
- inhibition of growth at 10 µM [28]: 169%
- GI50 [29]: 2840 nM
- CC50 [29]: > 100000 nM
- GI50 [30]: 3060 nM
- LC50 (50% lethal concentration) [30]: > 100000 nM
- inhibition of growth at 10 µM [31]: 120%
- GI50 [32]: 1770 nM
- LC50 [32]: 6780 nM
- GI50 [33]: 2670 nM
- CC50 [33]: > 100000 nM
- inhibition of growth at 10 µM [34]: 85%
- GI50 [35]: 2000 nM
- CC50 [35]: 35100 nM
- inhibition of growth at 10 µM [36]: 104%
- inhibition of growth at 10 µM [37]: 125%
- GI50 [38]: 2550 nM
- LC50 (concentration killing 50% of cells) [38]: > 100000 nM
- inhibition of growth at 10 µM [39]: 59%
- GI50 [40]: 2140 nM
- LC50 [40]: > 100000 nM

From ChEMBL document CHEMBL5154747, “Discovery of new carbonic anhydrase IX inhibitors as anticancer agents by toning the hydrophobic and hydrophilic rims of the active site to encounter the dual-tail approach” (Eur J Med Chem, 2022)
